Reference: patent US8178535B2, “Substituted sulfonamide compounds having bradykinin 1 receptor activity and use thereof as medicaments” (Gruenenthal GmbH, priority 2008, dated 2012)

Legend:
[1] = molecular target: T1, human B1R receptor (hB1R) (Homo sapiens, UniProt P46663); assay: FLIPR Ca2+ assay (Fluo-4) on CHO K1 cells stably transfected with the human B1R gene; format: cell-based; conditions: CHO-K1; test substance 10 μM; agonist Lys-Des-Arg9-bradykinin 0.5 nM; % inhibition compared to the maximum achievable inhibition
T1 construct: host or cells: CHO K1 cells
T1 sequence (P46663 1-353): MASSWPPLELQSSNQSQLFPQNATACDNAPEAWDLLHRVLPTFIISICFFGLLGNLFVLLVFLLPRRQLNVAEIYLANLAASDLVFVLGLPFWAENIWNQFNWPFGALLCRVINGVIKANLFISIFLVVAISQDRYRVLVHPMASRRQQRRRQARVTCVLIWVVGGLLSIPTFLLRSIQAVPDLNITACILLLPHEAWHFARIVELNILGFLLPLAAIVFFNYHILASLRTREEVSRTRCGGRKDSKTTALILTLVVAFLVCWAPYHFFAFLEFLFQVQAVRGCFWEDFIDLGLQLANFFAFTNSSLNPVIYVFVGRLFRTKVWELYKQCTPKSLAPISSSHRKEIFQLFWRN
Summary of the method: (§1)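 CHO K1 cells stably expressing human or rat B1R, Fluo-4 loaded, read by FLIPR (Ex 488/Em 540, peak fluorescence). Compound at 10 μM gives % activation vs agonist. After 10 min, agonist added (human: Lys-Des-Arg9-bradykinin 0.5 nM; rat: Des-Arg9-bradykinin 100 nM); % inhibition relative to maximal achievable inhibition.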

[2] = molecular target: T2, B1R receptor of rats (rB1R) (Rattus norvegicus, UniProt P97583); assay: FLIPR Ca2+ assay (Fluo-4) on CHO K1 cells stably transfected with the B1R gene of rats; format: cell-based; conditions: CHO-K1; test substance 10 μM; agonist Des-Arg9-bradykinin 100 nM; % inhibition compared to the maximum achievable inhibition
T2 construct: host or cells: CHO K1 cells
T2 sequence (P97583 1-337): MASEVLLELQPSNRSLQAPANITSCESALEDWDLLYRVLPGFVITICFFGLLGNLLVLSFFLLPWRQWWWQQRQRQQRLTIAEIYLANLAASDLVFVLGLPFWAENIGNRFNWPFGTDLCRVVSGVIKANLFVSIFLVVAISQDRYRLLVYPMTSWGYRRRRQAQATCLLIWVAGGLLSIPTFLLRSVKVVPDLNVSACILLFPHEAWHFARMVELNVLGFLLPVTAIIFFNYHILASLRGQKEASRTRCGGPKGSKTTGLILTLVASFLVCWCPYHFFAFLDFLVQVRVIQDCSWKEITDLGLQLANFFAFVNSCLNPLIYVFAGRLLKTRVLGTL
Summary of the method: as §1

Structure (SMILES) | inhibition at 10 µM [1] [%] | inhibition at 10 µM [2] [%]
COc1cc(C)c(S(=O)(=O)N2CCCCC2COCC(=O)N2CCn3ncnc3C2)c(C)c1 (stereo not shown) [(73), 1-(5,6-dihydro-[1,2,4]triazolo[1,5-a]pyrazin-7(8H)-yl)-2-((1-(4-methoxy-2,6-dimethylphenylsulfonyl)piperidin-2-yl)methoxy)ethanone] | 36 | 102
Cc1cc(C)c(S(=O)(=O)N2CCCCC2COCC(=O)N2CCn3cccc3C2c2cccc(C(F)(F)F)c2)c(C)c1 (stereo not shown) [(44), 2-((1-(mesitylsulfonyl)piperidin-2-yl)methoxy)-1-(1-(3-(trifluoromethyl)phenyl)-3,4-dihydropyrrolo[1,2-a]pyrazin-2(1H)-yl)ethanone] | 10 | 79
CCC1c2cccn2CCN1C(=O)COC[C@@H]1CCCCN1S(=O)(=O)c1c(C)cc(OC)cc1C (stereo partly drawn) [(86), 1-(1-ethyl-3,4-dihydropyrrolo[1,2-a]pyrazin-2(1H)-yl)-2-(((S)-1-(4-methoxy-2,6-dimethylphenylsulfonyl)piperidin-2-yl)methoxy)ethanone] | 99 | 99
Cc1cc(C)c(S(=O)(=O)N2CCCCC2COCC(=O)N2CCn3cccc3C2CCc2ccccc2)c(C)c1 (stereo not shown) [(45), 2-((1-(mesitylsulfonyl)piperidin-2-yl)methoxy)-1-(1-phenethyl-3,4-dihydro-pyrrolo[1,2-a]pyrazin-2(1H)-yl)ethanone] | 45 | 98
Cc1cc(C)c(S(=O)(=O)N2CCCCC2COCC(=O)N2CCn3cccc3C2c2cccnc2)c(C)c1 (stereo not shown) [(35), 2-((1-(mesitylsulfonyl)piperidin-2-yl)methoxy)-1-(1-(pyridin-3-yl)-3,4-dihydropyrrolo[1,2-a]pyrazin-2(1H)-yl)ethanone] | 100 | 97
COc1cc(C)c(S(=O)(=O)N2CCCCC2CCC(=O)N2CCn3c(CCc4cccnc4)ccc3C2)c(C)c1 (stereo not shown) [(102), 3-(1-(4-Methoxy-2,6-dimethylphenylsulfonyl)piperidin-2-yl)-1-(6-(2-(pyridin-3-yl)ethyl)-3,4-dihydropyrrolo[1,2-a]pyrazin-2(1H)-yl)propan-1-one] | 86 | 101
Cc1cc(S(=O)(=O)N2CCCCC2CCC(=O)N2CCn3c(CN4CCOCC4)ccc3C2)c(C)cc1Cl (stereo not shown) [(12), 3-(1-(4-chloro-2,5-dimethylphenylsulfonyl)piperidin-2-yl)-1-(6-(morpholino-methyl)-3,4-dihydropyrrolo[1,2-a]pyrazin-2(1H)-yl)propan-1-one] | 103 | 57
COc1cc(C)c(S(=O)(=O)N2CCCCC2COCC(=O)N2CCn3ccnc3C2)c(C)c1 (stereo not shown) [(23), 1-(5,6-dihydroimidazo[1,2-a]pyrazin-7(8H)-yl)-2-((1-(4-methoxy-2,6-dimethyl-phenylsulfonyl)piperidin-2-yl)methoxy)ethanone] | 70 | 99
COc1cc(C)c(S(=O)(=O)N2CCCCC2CCC(=O)N2CCn3cc(-c4ccncc4)nc3C2)c(C)c1 (stereo not shown) [(114), 3-(1-(4-Methoxy-2,6-dimethylphenylsulfonyl)piperidin-2-yl)-1-(2-(pyridin-4-yl)-5,6-dihydroimidazo[1,2-a]pyrazin-7(8H)-yl)propan-1-one] | 79 | 98
COc1cc(C)c(S(=O)(=O)N2CCCCC2COCC(=O)N2CCn3cccc3C2c2cccs2)c(C)c1 (stereo not shown) [(29), 2-((1-(4-methoxy-2,6-dimethylphenylsulfonyl)piperidin-2-yl)methoxy)-1-(1-(thiophen-2-yl)-3,4-dihydropyrrolo[1,2-a]pyrazin-2(1H)-yl)ethanone] | 102 | 98

More lines, now with the values ahead:

inhibition at 10 µM [1] [%] | inhibition at 10 µM [2] [%] | Structure (SMILES)
102 | 102 | COc1cc(C)c(S(=O)(=O)N2CCCCC2COCC(=O)N2CCn3cccc3C2C(C)C)c(C)c1 (stereo not shown) [(72), 1-(1-isopropyl-3,4-dihydropyrrolo[1,2-a]pyrazin-2(1H)-yl)-2-((1-(4-methoxy-2,6-dimethylphenylsulfonyl)piperidin-2-yl)methoxy)ethanone]
100 | 98 | COc1cc(C)c(S(=O)(=O)N2CCCCC2COCC(=O)N2CCn3cc(CCc4ccncc4)nc3C2)c(C)c1 (stereo not shown) [(115), 2-((1-(4-Methoxy-2,6-dimethylphenylsulfonyl)piperidin-2-yl)methoxy)-1-(2-(2-(pyridin-4-yl)ethyl)-5,6-dihydroimidazo[1,2-a]pyrazin-7(8H)-yl)ethanone]
56 | 100 | COc1cc(C)c(S(=O)(=O)N2CCCCC2COCC(=O)N2CCn3cnnc3C2)c(C)c1 (stereo not shown) [(1), 1-(5,6-dihydro-[1,2,4]triazolo[4,3-a]pyrazin-7(8H)-yl)-2-((1-(4-methoxy-2,6-dimethylphenylsulfonyl)piperidin-2-yl)methoxy)ethanone]
66 | 97 | COc1cc(C)c(S(=O)(=O)N2CCCCC2COCC(=O)N2CCn3cccc3C2c2ccc(C)c(C)c2)c(C)c1 (stereo not shown) [(27), 1-(1-(3,4-dimethylphenyl)-3,4-dihydropyrrolo[1,2-a]pyrazin-2(1H)-yl)-2-((1-(4-methoxy-2,6-dimethylphenylsulfonyl)piperidin-2-yl)methoxy)ethanone]
103 | 102 | CCCC1c2cccn2CCN1C(=O)COCC1CCCCN1S(=O)(=O)c1c(C)cc(OC)cc1C (stereo not shown) [(71), 2-((1-(4-methoxy-2,6-dimethylphenylsulfonyl)piperidin-2-yl)methoxy)-1-(1-propyl-3,4-dihydropyrrolo[1,2-a]pyrazin-2(1H)-yl)ethanone]
73 | 99 | Cc1cc(C)c(S(=O)(=O)N2CCCCC2COCC(=O)N2CCn3cccc3C2c2cccc(F)c2)c(C)c1 (stereo not shown) [(42), 1-(1-(3-fluorophenyl)-3,4-dihydropyrrolo[1,2-a]pyrazin-2(1H)-yl)-2-((1-(mesitylsulfonyl)piperidin-2-yl)methoxy)ethanone]
45 | 99 | COc1cc(C)c(S(=O)(=O)N2CCCCC2CCC(=O)N2CCn3c(ccc3-c3cccnc3)C2)c(C)c1 (stereo not shown) [(94), 3-(1-(4-Methoxy-2,6-dimethylphenylsulfonyl)piperidin-2-yl)-1-(6-(pyridin-3-yl)-3,4-dihydropyrrolo[1,2-a]pyrazin-2(1H)-yl)propan-1-one]
78 | 102 | O=C(CC1CCCCN1S(=O)(=O)c1cccc(C(F)(F)F)c1)N1CCn2cc(CCc3ccncc3)nc2C1 (stereo not shown) [(116), 1-(2-(2-(pyridin-4-yl)ethyl)-5,6-dihydroimidazo[1,2-a]pyrazin-7(8H)-yl)-2-(1-(3-(trifluoromethyl)phenylsulfonyl)piperidin-2-yl)ethanone]
102 | 103 | Cc1cc(C)c(S(=O)(=O)N2CCCCC2COCC(=O)N2CCn3cccc3C2C(C)C)c(C)c1 (stereo not shown) [(57), 1-(1-isopropyl-3,4-dihydropyrrolo[1,2-a]pyrazin-2(1H)-yl)-2-((1-(mesitylsulfonyl)piperidin-2-yl)methoxy)ethanone]
84 | 101 | COc1cc(C)c(S(=O)(=O)N2CCCCC2CCCC(=O)N2CCn3c(ccc3-c3ccncc3)C2)c(C)c1 (stereo not shown) [(110), 4-(1-(4-Methoxy-2,6-dimethylphenylsulfonyl)piperidin-2-yl)-1-(6-(pyridin-4-yl)-3,4-dihydropyrrolo[1,2-a]pyrazin-2(1H)-yl)butan-1-one]
104 | 48 | Cc1cc(S(=O)(=O)N2CCCCC2CCC(=O)N2CCn3c(CN4CCCC4)ccc3C2)c(C)cc1Cl (stereo not shown) [(9), 3-(1-(4-chloro-2,5-dimethylphenylsulfonyl)piperidin-2-yl)-1-(6-(pyrrolidin-1-ylmethyl)-3,4-dihydropyrrolo[1,2-a]pyrazin-2(1H)-yl)propan-1-one]
101 | 99 | COc1cc(C)c(S(=O)(=O)N2CCCCC2COCC(=O)N2CCn3cccc3C2C)c(C)c1 (stereo not shown) [(20), 2-((1-(4-methoxy-2,6-dimethylphenylsulfonyl)piperidin-2-yl)methoxy)-1-(1-methyl-3,4-dihydropyrrolo[1,2-a]pyrazin-2(1H)-yl)ethanone]
102 | 103 | CCC1c2cccn2CCN1C(=O)COCC1CCCCN1S(=O)(=O)c1c(C)cc(OC)cc1C (stereo not shown) [(70), 1-(1-ethyl-3,4-dihydropyrrolo[1,2-a]pyrazin-2(1H)-yl)-2-((1-(4-methoxy-2,6-dimethylphenylsulfonyl)piperidin-2-yl)methoxy)ethanone]
